{"source": "PubChem BioAssay AID1845217", "about": "(Molecular Pharmacology Branch, DTP, NCI, 2023)", "tested_on": "VA-ES-BJ tumor spheroid viability", "test": "Anticancer human tumor VA-ES-BJ cell line growth inhibition;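 as to all read-outs here: spheroids exposed to compounds for seven days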;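 as to viability, T/C: percent of DMSO vehicle control viability so 100% = untreated growth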", "settings": "spheroids with HUVEC and MSC; for IC50: curve of first compound; for viability, T/C: stronger effect = lower value", "text": "Multicellular complex tumor spheroid response to DNA repair inhibitors in combination with DNA-damaging drugs\nThis study explores the anticancer activities of DNA-damaging drugs and inhibitors of DNA damage repair, both as single agents and in combinations. Complex tumor spheroids comprised of malignant cells, endothelial cells and mesenchymal stem cells served as an in vitro model for human solid tumors. This model system incorporates physiologically relevant features and patient-derived or established malignant cell lines with clinically relevant genetic alterations from many tumor types. Twenty-six patient-derived or established malignant cell lines were evaluated representing sarcoma, melanoma, small cell lung cancer (SCLC), non-small cell lung cancer (NSCLC), as well as bladder, ovarian and pancreatic cancers. The concentration ranges selected for each drug and investigational agent were based upon clinically achievable concentrations if the clinical Cmax of the agent was known.\nCompounds. The drugs and compounds olaparib (NSC753686), talazoparib (NSC767125), berzosertib (NSC777718), elimusertib (NSC800525), nedisertib (NSC802822), VX-984 (NSC792969), AZD-1390 (NSC803789), temozolomide (NSC362856), topotecan (NSC609699), trabectedin (NSC813783), staurosporine (NSC755774), and gemcitabine (NSC613327) were obtained from the National Cancer Institute (NCI) Developmental Therapeutics Program Chemical Repository. The FDA-approved anticancer drug set is available from the Developmental Therapeutics Program at https://dtp.cancer.gov/organization/dscb/obtaining/available_plates.htm. […] The stock solutions were prepared in dimethyl sulfoxide (DMSO, Sigma-Aldrich, St. Louis, MO, cat. D2650) at 400-fold the tested concentration and stored at -70 degrees C. Prior to their use, the stock solutions were diluted in fresh medium and the final DMSO concentration in the assay was 0.25% (v/v). All drugs and investigational agents were tested over a range starting from a high concentration at or near the clinical Cmax and decreasing in half-log increments. If the clinical Cmax for an agent had not been determined, the highest concentration tested was 10 microM.\nCell Lines. The patient-derived cancer cell (PDC) lines: 156681-154-R-J1-PDC, 283228-195-R-J1-PDC, 287954-098-R-J1-PDC, 292921-168-R-J2-PDC, 349418-098-R-PDC, 425362-245-T-J1-PDC, 556581-035-R-J1-PDC, and BL0293-F563-PDC were received from the NCI Patient-Derived Models Repository (PDMR, https://pdmr.cancer.gov). The established cell lines HS-SY-2 (RRID:CVCL_8719), MPNST, and SYO-1 (RRID:CVCL_7146) were obtained from the Sloan Kettering Institute. The alveolar soft parts sarcoma cell line ASPS-1 (RRID:CVCL_S738) was established at the NCI and grown from internal seed stocks. The following established cell lines were purchased from the American Type Culture Collection (ATCC, Manassas, VA): G-401 (ATCC, cat. CRL-1441, RRID:CVCL_0270), SW982 (ATCC, cat. HTB-93, RRID:CVCL_1734), VA-ES-BJ (ATCC, cat. CRL-2138, RRID:CVCL_1785), NCI-H719 (ATCC, cat. CRL-5837, RRID:CVCL_1582), NCI-H196 (ATCC, cat. CRL-5823, RRID:CVCL_1509), NCI-H841 (ATCC, cat. CRL-5845, RRID:CVCL_1595), NCI-H1618 (ATCC, cat. CRL-5879, RRID:CVCL_1480), NCI-H1876 (ATCC, cat. CRL-5902, RRID:CVCL_1503), DMS 114 (ATCC, cat. CRL-2066; RRID:CVCL_1174), NCI-H211 (ATCC, cat. CRL-5824; RRID:CVCL_1529), and SW 1271 (ATCC, cat. CRL-2177, RRID:CVCL_1716). The small cell lung cancer cell line COR-L88 was purchased from Sigma-Aldrich (cat. 92031917-1VL, RRID:CVCL_1141). The non-small cell lung cancer cell lines NCI-H226 (RRID:CVCL_1544) and NCI-H322M (RRID:CVCL_1557) were established at the NCI and grown from internal seed stocks. Pooled donor human umbilical vein endothelial cells (HUVEC, Lonza, cat. CC-2519) and human mesenchymal stem cells (hMSC, Lonza, cat. PT-2501) were purchased from Lonza (Walkersville, MD).\nCell Culture. All cells were maintained in an incubator at 37 degrees C and 5% CO2 with 95% humidity. […]", "data": [{"smiles": "Cn1ncnc1[C@H]1c2n[nH]c(=O)c3cc(F)cc(c23)N[C@@H]1c1ccc(F)cc1", "note": "+ CC[C@@]1(O)C(=O)OCc2c1cc1n(c2=O)Cc2cc3c(CN(C)C)c(O)ccc3nc2-1", "values": [{"measurement": "IC50", "setting": "second compound 0.003 µM", "value": 150, "unit": "nM"}, {"measurement": "IC50", "setting": "second compound 0.00949 µM", "value": "< 9.49", "unit": "nM"}, {"measurement": "IC50", "setting": "second compound 0.03 µM", "value": "< 9.49", "unit": "nM"}, {"measurement": "IC50", "setting": "second compound 0.0949 µM", "value": "< 9.49", "unit": "nM"}, {"measurement": "IC50", "setting": "second compound 0.3 µM", "value": "< 9.49", "unit": "nM"}, {"measurement": "viability, T/C", "setting": "second compound 0.003 µM, first compound 0.00949 µM", "value": 70.4, "unit": "%"}, {"measurement": "viability, T/C", "setting": "second compound 0.003 µM, first compound 0.03 µM", "value": 54.7, "unit": "%"}, {"measurement": "viability, T/C", "setting": "second compound 0.003 µM, first compound 0.0949 µM", "value": 57.9, "unit": "%"}, {"measurement": "viability, T/C", "setting": "second compound 0.003 µM, first compound 0.3 µM", "value": 44.7, "unit": "%"}, {"measurement": "viability, T/C", "setting": "second compound 0.003 µM, first compound 0.949 µM", "value": 22.9, "unit": "%"}, {"measurement": "viability, T/C", "setting": "second compound 0.003 µM, first compound 3 µM", "value": 5.42, "unit": "%"}, {"measurement": "viability, T/C", "setting": "second compound 0.00949 µM, first compound 0.00949 µM", "value": 43.9, "unit": "%"}, {"measurement": "viability, T/C", "setting": "second compound 0.00949 µM, first compound 0.03 µM", "value": 33.5, "unit": "%"}, {"measurement": "viability, T/C", "setting": "second compound 0.00949 µM, first compound 0.0949 µM", "value": 28.4, "unit": "%"}, {"measurement": "viability, T/C", "setting": "second compound 0.00949 µM, first compound 0.3 µM", "value": 21, "unit": "%"}, {"measurement": "viability, T/C", "setting": "second compound 0.00949 µM, first compound 0.949 µM", "value": 10.6, "unit": "%"}, {"measurement": "viability, T/C", "setting": "second compound 0.00949 µM, first compound 3 µM", "value": 6.84, "unit": "%"}, {"measurement": "viability, T/C", "setting": "second compound 0.03 µM, first compound 0.00949 µM", "value": 9.86, "unit": "%"}, {"measurement": "viability, T/C", "setting": "second compound 0.03 µM, first compound 0.03 µM", "value": 8.29, "unit": "%"}, {"measurement": "viability, T/C", "setting": "second compound 0.03 µM, first compound 0.0949 µM", "value": 7.12, "unit": "%"}, {"measurement": "viability, T/C", "setting": "second compound 0.03 µM, first compound 0.3 µM", "value": 6.39, "unit": "%"}, {"measurement": "viability, T/C", "setting": "second compound 0.03 µM, first compound 0.949 µM", "value": 4.2, "unit": "%"}, {"measurement": "viability, T/C", "setting": "second compound 0.03 µM, first compound 3 µM", "value": 3.72, "unit": "%"}, {"measurement": "viability, T/C", "setting": "second compound 0.0949 µM, first compound 0.00949 µM", "value": 7.58, "unit": "%"}, {"measurement": "viability, T/C", "setting": "second compound 0.0949 µM, first compound 0.03 µM", "value": 7.39, "unit": "%"}, {"measurement": "viability, T/C", "setting": "second compound 0.0949 µM, first compound 0.0949 µM", "value": 8.32, "unit": "%"}, {"measurement": "viability, T/C", "setting": "second compound 0.0949 µM, first compound 0.3 µM", "value": 8.9, "unit": "%"}, {"measurement": "viability, T/C", "setting": "second compound 0.0949 µM, first compound 0.949 µM", "value": 4.82, "unit": "%"}, {"measurement": "viability, T/C", "setting": "second compound 0.0949 µM, first compound 3 µM", "value": 3.16, "unit": "%"}, {"measurement": "viability, T/C", "setting": "second compound 0.3 µM, first compound 0.00949 µM", "value": 9.11, "unit": "%"}, {"measurement": "viability, T/C", "setting": "second compound 0.3 µM, first compound 0.03 µM", "value": 9.07, "unit": "%"}, {"measurement": "viability, T/C", "setting": "second compound 0.3 µM, first compound 0.0949 µM", "value": 8.75, "unit": "%"}, {"measurement": "viability, T/C", "setting": "second compound 0.3 µM, first compound 0.3 µM", "value": 9.02, "unit": "%"}, {"measurement": "viability, T/C", "setting": "second compound 0.3 µM, first compound 0.949 µM", "value": 8.91, "unit": "%"}, {"measurement": "viability, T/C", "setting": "second compound 0.3 µM, first compound 3 µM", "value": 7.66, "unit": "%"}]}]}
